Like-named read-outs stand apart in the source and are kept apart here.
How the values were obtained:
DPPH radical scavenging = settings: compounds 0.1 mM, DPPH 0.1 mM in ethanol
Description: Antioxidant compounds able to neutralize DPPH radicals are increasingly recognized due to their capability of combating cancer, slowing down the aging process and regulating inflammation. As a result, they could potentially offer protection against rheumatoid arthritis and inflammation. […] In this experiment, NDGA and BHT were used as reference compounds and measurements took place at 30 min and 60 min. […] Such low scavenging activity of DPPH radicals is rather common for metal–NSAID complexes.
S1 Antioxidant activity assay
The antioxidant activity of the compound was evaluated via the ability to scavenge in vitro free radicals such as DPPH and ABTS and to reduce H2O2. All the experiments were carried out at least in triplicate and the standard deviation of absorbance was less than 10% […]
S1.1 Determination of the reducing activity of the radical DPPH
To an ethanolic solution of DPPH (0.1 mM) an equal volume solution of the compounds (0.1 mM) in ethanol was added. Absolute ethanol was also used as control solution. The absorbance at 517 nm was recorded at room temperature after 30 and 60 min in order to examine the possible existence of a potential time−dependence of the DPPH radical scavenging activity.[1] The DPPH−scavenging activity of the compounds was expressed as the percentage reduction of the absorbance values of the initial DPPH solution (DPPH%). NDGA and BHT were used as reference compounds. […]

[1] = tested on: Bacillus subtilis ATCC 6633; experiment: Antibacterial activity, MIC; assay type: cell-based; settings: 24 h incubation, 37°C; for MIC: read-out: MIC, B. subtilis
From the text: (§1) In order to evaluate the antimicrobial activity of the synthesized 4′–NO2–fenH and its Co(II) complexes 1–4, two Gram-positive (B. subtilis and S. aureus) and two Gram-negative (X. campestris and E. coli) strains were used. In general, the increased antimicrobial activity of the complexes is attributed to five main factors: (i) the chelation effect of the ligands, (ii) the chemical nature of the ligands, (iii) the nature and the nuclearity of the metal center, (iv) the total charge of the complex and (v) the presence and nature of counter ions. […]
(§2) S2 Antibacterial Activity studies
(§3) The antibacterial activity of the compounds was evaluated by determining their respective MIC values towards two Gram–(–) (Escherichia coli XL1 (E. coli) and Xanthomonas campestris ATCC 1395 (X. campestris)) and two Gram–(+) (Staphylococcus aureus ATCC 29213 (S. aureus) and Bacillus subtilis ATCC 6633 (B. subtilis)) bacterial species. Cultures of these microbial strains were grown on a rich selective agar medium and stored at 4°C. The selective media used were Nutrient Agar or Broth for B. subtilis and S. aureus, Yeast Mold Agar or Broth for X. campestris and Luria Agar or Broth for E. coli. Cells picked from the surface of the stored cultures were used to initiate liquid pre–cultures of the same selective medium at an initial turbidity of roughly 1 McFarland unit.
(§4) Pre–cultures were incubated for 24 h in a rotary shaking incubator and subsequently they were used to inoculate the test cultures used for the determination of MIC at an initial turbidity of 0.5 McFarland units. The test cultures consisted of Mueller–Hinton broth (Deben Diagnostics Ltd) containing different concentrations of the compounds. Different concentrations were achieved as follows: the compounds were freshly dissolved in DMSO to a concentration of 1 mg/mL, and they were diluted with DMSO, using the method of progressive double dilution. Therefore, working solutions with decreasing concentrations of the compounds under investigation were achieved.
(§5) The working solutions were subsequently diluted to the final desired concentration by addition to the growth medium at a proportion of 2:98. MIC values were determined as the lowest concentrations of the tested compounds that inhibited visible growth of each respective organism after a 24 h incubation. Bacterial growth was determined by measuring the turbidity of appropriately diluted cultures at 600 nm with reference to equally diluted sterile growth medium and the inhibition achieved was calculated by comparing the turbidity of each culture to the average of the turbidity of three non–inhibited cultures. All test cultures were grown in triplicates and for the determination of MIC, growth had to be inhibited in at least two cultures of the triplicate. The incubation temperature at all stages was 37°C except for X. campestris that was cultivated at 28°C [4].

[2] = tested on: Staphylococcus aureus ATCC 29213; experiment: Antibacterial activity, MIC; assay type: cell-based; settings: 24 h incubation, 37°C; for MIC: read-out: MIC, S. aureus
From the text: as §1, §2, §3, §4, §5

[3] = tested on: Xanthomonas campestris ATCC 33013; experiment: Antibacterial activity, MIC; assay type: cell-based; settings: for MIC: read-out: MIC, X. campestris
From the text: as §1, §2, §3, §4, §5

CT DNA = experiment: Interaction with CT DNA by UV-vis spectroscopy; assay type: binding, calf; settings: for percentage of the observed hyper-/hypochromism (ΔA/A0, %) / blue-/red-shift in λmax (Δλ, nm): upon addition of CT DNA; for DNA-binding constant Kb: Wolfe–Shimer equation
Description: UV-vis spectroscopy was employed to determine the interaction mode of the compounds (4′–NO2–fenH and its complexes 1–4) with DNA and calculate the DNA-binding constant (Kb). For this reason, the UV-vis spectra of the compounds (2 × 10^−5–10^−4 Μ) were recorded in the presence of incremental additions of CT DNA solution (Figure S4), and the changes (in absorbance and wavelength) of the initial bands were monitored. […] However, a definite conclusion cannot be reached from such spectroscopic data, but the interaction mode could be further corroborated by viscosity measurements.
The Kb values of the compounds were calculated with the Wolfe–Shimer equation (Equation (S1)) and the corresponding plots of [DNA]/(εA–εF) vs. [DNA] (Figure S5).
S3 Binding studies with CT DNA
In order to study the interaction of the compounds with DNA, the compound was initially dissolved in DMSO (1 mM). Mixing of such solutions with the aqueous buffer solutions of DNA used in the studies never exceeded 5% DMSO (v/v) in the final solution, which was needed due to low aqueous solubility of most compounds. In all experiments, the effect of DMSO on the data has been taken into consideration and the appropriate corrections have been performed. The interaction of the compound with CT DNA was monitored by UV−vis spectroscopy, and viscosity measurements, and via competitive studies with EB by fluorescence emission spectroscopy.
S3.1 Binding study with CT DNA by UV−vis spectroscopy
The interaction of the compound with CT DNA has been studied by UV−vis spectroscopy in order to investigate the possible binding mode to CT DNA and to calculate the DNA−binding constant (Kb). of the compounds Kb (in M−1) was determined with the Wolfe−Shimer equation (equation S1) and the plots [DNA]/(εA−εf) versus [DNA] using the UV−vis spectra of the compound (25–100 μM) recorded for a constant concentration with increasing amounts of CT DNA for diverse [compound]/[DNA] mixing ratios (= r).
According to the Wolfe−Shimer equation:
[DNA] = [DNA] + 1 (equation S1)
(εA−εf) (εb−εf) Kb(εb−εf) where [DNA] is the concentration of DNA in base pairs, εA = Aobsd/[compound], εf = the extinction coefficient for the free compound and εb = the extinction coefficient for the compound in the fully bound form. Kb is given by the ratio of slope to the y intercept in plots [DNA]/(εA−εf) versus [DNA]. […]

[4] = value in parentheses, 24 h incubation, 28°C
[5] = UV band at λmax 391–421 nm, + hyperchromism, − hypochromism
[6] = UV band at λmax 391–421 nm, + red-shift, − blue-shift

| SMILES | %DPPH-scavenging ability (DPPH%), 30 min (DPPH radical scavenging) | %DPPH-scavenging ability (DPPH%), 60 min (DPPH radical scavenging) | MIC, B. subtilis [1] [µg/mL] | MIC ([1]; value in parentheses) [µM] | MIC, S. aureus [2] [µg/mL] | MIC ([2]; value in parentheses) [µM] | MIC, X. campestris ([3]; 24 h incubation, 28°C) [µg/mL] | MIC [3, 4] [µM] | percentage of the observed hyper-/hypochromism (ΔA/A0, %) (CT DNA; [5]) [%] | blue-/red-shift in λmax (Δλ, nm) (CT DNA; [6]) | MIC ([1]; Bacillus subtilis, ATCC6633) [µg/mL] | MIC ([1]; Bacillus subtilis, ATCC6633, value in parentheses) [µM] | MIC ([2]; Staphylococcus aureus, ATCC29213) [µg/mL] | MIC ([2]; Staphylococcus aureus, ATCC29213, value in parentheses) [µM] | MIC ([3]; Xanthomonas campestris, ATCC33013, 24 h) [µg/mL] | MIC ([3]; Xanthomonas campestris, ATCC33013, value in parentheses, 24 h incubation, 28°C) [µM] | DNA-binding constant Kb (CT DNA; listed as 4′–NO2–fenamic acid) [M⁻¹] | DNA-binding constant Kb (CT DNA) [M⁻¹] | blue-/red-shift in λmax (Δλ, nm) (CT DNA; UV band at λmax 321 nm) [nm] | percentage of the observed hyper-/hypochromism (ΔA/A0, %) (CT DNA; UV band at λmax 321 nm) |
| --- | --- | --- | --- | --- | --- | --- | --- | --- | --- | --- | --- | --- | --- | --- | --- | --- | --- | --- | --- | --- |
| CO.CO.CO.CO.O=C([O-])c1ccccc1Nc1ccc([N+](=O)[O-])cc1.O=C([O-])c1ccccc1Nc1ccc([N+](=O)[O-])cc1.[Co+2] [Complex 1, [Co(4′–NO2–fen)2(MeOH)4]] | Not active | Not active | 12.5 | 18 | 12.5 | 18 | > 50 | > 71 | −10 | 0 nm | – | – | – | – | – | – | – | – | – | – |
| O=C(O)c1ccccc1Nc1ccc([N+](=O)[O-])cc1 [4′–NO2–fenH, 4′–nitrofenamic acid] | Not active | Not active | – | – | – | – | – | – | −12 | +20 nm | 12.5 | 48 | 25 | 97 | 25 | 97 | 1.62e+06 | – | – | – |
| C[O-].C[O-].Cc1ccc2ccc3ccc(C)nc3c2n1.Cc1ccc2ccc3ccc(C)nc3c2n1.O=C([O-])c1ccccc1Nc1ccc([N+](=O)[O-])cc1.O=C([O-])c1ccccc1Nc1ccc([N+](=O)[O-])cc1.[Co+2].[Co+2] [Complex 4, [Co2(4′–NO2–fen)2(μ–CH3O)2(neoc)2]] | Not active | Not active | 12.5 | 11 | 12.5 | 11 | 12.5 | 11 | −3 | −4.5 nm | – | – | – | – | – | – | – | 2.06e+06 | – | – |
| O=C([O-])c1ccccc1Nc1ccc([N+](=O)[O-])cc1.O=C([O-])c1ccccc1Nc1ccc([N+](=O)[O-])cc1.[Co+2].c1cnc2c(c1)ccc1cccnc12 [Complex 3, [Co(4′–NO2–fen)2(phen)]] | Not active | Not active | 25 | 33 | 25 | 33 | 25 | 33 | −2.5 | +0.5 nm | – | – | – | – | – | – | – | – | – | – |
| O=C([O-])c1ccccc1Nc1ccc([N+](=O)[O-])cc1.O=C([O-])c1ccccc1Nc1ccc([N+](=O)[O-])cc1.[Co+2].c1ccc(Nc2ccccn2)nc1 [Complex 2, [Co(4′–NO2–fen)2(bipyam)]] | Not active | Not active | 25 | 34 | > 50 | > 67 | 25 | – | −10 | 0 nm | – | – | – | – | – | – | – | – | −0.5 | +4% |
